Among the test systems are 786-0; SNB-75; MDA-MB-435; SK-MEL-28; KM12; A549; OVCAR-8; BT-549; OVCAR-5; RXF 393; HCC 2998; SF-539; SR; CCRF-CEM; UACC-257; T47D; ACHN; HOP-92; SNB-19; HL-60.
Assay in all cases: NCI tumour cell line growth inhibition, 48 h

The structures appear in SMILES notation.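 Cultured in 96-well plates, cells were exposed to test compound for 48 hours across five concentrations. At the GI50, growth is halved.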 Active and inactive are the calls of the source. No stated cut-off is given here; in the data, active = GI50 up to about 1.1 µM and inactive = higher.

Consider `Cc1ccsc1C(=O)C(CC(=O)c1cccs1)c1ccsc1` (stereo not given), for which the GI50 in the experiment with 786-0, with SNB-75, with MDA-MB-435, with SK-MEL-28, in the experiment with KM12 and in the experiment with A549 was > 100 µM (inactive) each time. In addition, the GI50 in the experiment with OVCAR-8 is > 100 µM (inactive); with BT-549, 66.5 µM (inactive); in the experiment on OVCAR-5, > 100 µM (inactive); in the experiment on RXF 393, > 100 µM (inactive); with HCC 2998 it was > 100 µM (inactive); in the experiment on SF-539, > 100 µM (inactive). Further, the GI50 in the experiment with SR is 62.8 µM (inactive); in the experiment on CCRF-CEM, > 100 µM (inactive); with UACC-257, > 100 µM (inactive); with T47D it was 14.5 µM (inactive); in the experiment on ACHN it was > 100 µM (inactive); with HOP-92, > 100 µM (inactive). Besides, in the experiment with SNB-19, the GI50 is > 100 µM (inactive).

As for `COc1ccccc1NC(=O)C1=C(C)NC(C)=C(C(=O)Nc2ccccc2OC)C1c1ccco1`, the GI50 was 4.45 µM (inactive) in the experiment on 786-0; 3.37 µM (inactive) in the experiment with SNB-75; 3.48 µM (inactive) in the experiment on MDA-MB-435; 19.7 µM (inactive) with SK-MEL-28; 3.98 µM (inactive) in the experiment with KM12; 5.18 µM (inactive) in the experiment with A549. Besides, the GI50 in the experiment with OVCAR-8 was 17.8 µM (inactive); in the experiment on BT-549 it was 8.49 µM (inactive); in the experiment on OVCAR-5 it was 39.8 µM (inactive); in the experiment with RXF 393 it was 2.51 µM (inactive); in the experiment on HCC 2998, 8.79 µM (inactive); in the experiment on SF-539 it was 4.13 µM (inactive). The GI50 in the experiment with SR was 1.34 µM (inactive); in the experiment on HL-60 it was 0.638 µM (active); in the experiment with CCRF-CEM it was 5.06 µM (inactive); with UACC-257, 9.55 µM (inactive); with T47D, 11.9 µM (inactive); in the experiment on ACHN, 6.41 µM (inactive). Besides, the GI50 in the experiment with HOP-92 is 3.98 µM (inactive); in the experiment on SNB-19, 7.71 µM (inactive).

Take `CC(=O)Nc1ccc(-c2nc3ccccc3s2)cc1Cl`: the GI50 is > 78.3 µM (inactive) with 786-0; 36.7 µM (inactive) with SNB-75; > 100 µM (inactive) in the experiment with MDA-MB-435; > 100 µM (inactive) in the experiment on SK-MEL-28; 57.4 µM (inactive) in the experiment with KM12; 99.8 µM (inactive) with A549. For the same compound, the GI50 in the experiment with OVCAR-8 was 66.5 µM (inactive); in the experiment with BT-549, > 75.9 µM (inactive); with OVCAR-5, 0.171 µM (active); in the experiment on RXF 393, 26.5 µM (inactive); with HCC 2998 it was 0.23 µM (active); in the experiment with SF-539, 16.3 µM (inactive). For the same compound, the GI50 is > 100 µM (inactive) in the experiment with SR; > 100 µM (inactive) in the experiment with HL-60; > 100 µM (inactive) in the experiment on CCRF-CEM; > 41.1 µM (inactive) in the experiment with UACC-257; 0.395 µM (active) in the experiment on T47D; > 74 µM (inactive) with ACHN. The GI50 with HOP-92 is 54.2 µM (inactive); in the experiment on SNB-19, 67.5 µM (inactive).

Consider `Nc1ccc(-c2ccc(Nc3cc(S(=O)(=O)O)c(N)c4c3C(=O)c3ccccc3C4=O)cc2)c(S(=O)(=O)O)c1`, for which the GI50 in the experiment on 786-0, in the experiment on SNB-75, in the experiment on MDA-MB-435, in the experiment with SK-MEL-28, in the experiment on KM12 and in the experiment with A549 was > 100 µM (inactive) in each case. The GI50 with OVCAR-8, in the experiment on BT-549, in the experiment on OVCAR-5, in the experiment on RXF 393, in the experiment on HCC 2998 and in the experiment with SF-539 was > 100 µM (inactive) each time. For the same compound, the GI50 in the experiment on SR, with HL-60, with CCRF-CEM, in the experiment with UACC-257, in the experiment on T47D and with ACHN was > 100 µM (inactive) throughout. The GI50 in the experiment with HOP-92 and in the experiment on SNB-19 was > 100 µM (inactive) each time.

As for `COc1ccccc1NC(=S)N/N=C/c1c(C)n(C)n(-c2ccccc2)c1=O`, the GI50 was > 100 µM (inactive) in the experiment on 786-0; 49 µM (inactive) in the experiment on SNB-75; 34.6 µM (inactive) in the experiment with MDA-MB-435; > 100 µM (inactive) in the experiment on SK-MEL-28; 31.8 µM (inactive) in the experiment with KM12; 56.9 µM (inactive) with OVCAR-8. In addition, the GI50 is > 100 µM (inactive) in the experiment with BT-549; 34.9 µM (inactive) with RXF 393; > 100 µM (inactive) in the experiment with HCC 2998; 49.9 µM (inactive) in the experiment with SF-539; 51.6 µM (inactive) in the experiment on SR; > 100 µM (inactive) in the experiment on HL-60. The GI50 was > 100 µM (inactive) in the experiment on CCRF-CEM; > 100 µM (inactive) in the experiment on UACC-257; > 100 µM (inactive) in the experiment on T47D; > 100 µM (inactive) with ACHN; 43.6 µM (inactive) in the experiment with HOP-92; > 100 µM (inactive) in the experiment on SNB-19.

Turning to `Cc1ccnc(NC(=S)Nc2ccc([N+](=O)[O-])cc2)c1`, the GI50 is 75.3 µM (inactive) in the experiment with 786-0; 44.6 µM (inactive) in the experiment with SNB-75; > 100 µM (inactive) with MDA-MB-435; > 100 µM (inactive) with SK-MEL-28; > 100 µM (inactive) with KM12; 35.5 µM (inactive) in the experiment with OVCAR-8. Also, the GI50 with BT-549 is > 100 µM (inactive); in the experiment on RXF 393, > 100 µM (inactive); in the experiment with HCC 2998, > 100 µM (inactive); in the experiment on SF-539, 26.4 µM (inactive); in the experiment on SR it was > 100 µM (inactive); with HL-60, > 100 µM (inactive). For the same compound, the GI50 in the experiment with CCRF-CEM is > 100 µM (inactive); with UACC-257, > 100 µM (inactive); in the experiment on T47D, > 100 µM (inactive); with ACHN it was > 100 µM (inactive); in the experiment on HOP-92, 31.1 µM (inactive); in the experiment on SNB-19, > 100 µM (inactive).

On to `C/C(=N/NC(=O)c1ccncc1)c1ccc(NC(=O)C(=O)Nn2c(S)nc3ccccc3c2=O)cc1`, for which the GI50 with 786-0, with SNB-75, in the experiment on MDA-MB-435, in the experiment with SK-MEL-28, with KM12 and in the experiment on A549 was > 100 µM (inactive) in each case. The GI50 in the experiment with OVCAR-8, with BT-549, with OVCAR-5, with RXF 393, with HCC 2998 and in the experiment on SF-539 was > 100 µM (inactive) each time. Moreover, the GI50 is > 100 µM (inactive) in the experiment on SR; > 100 µM (inactive) with CCRF-CEM; > 100 µM (inactive) with UACC-257; > 100 µM (inactive) in the experiment with T47D; > 100 µM (inactive) with ACHN; 59 µM (inactive) in the experiment with HOP-92. Further, in the experiment with SNB-19, the GI50 was > 100 µM (inactive).

Regarding `COc1ccc(OC)c(N2C(=O)/C(=C\c3ccccc3)SC2c2cc(OC)c(OC)c(OC)c2)c1` (stereo not given), the GI50 with 786-0 is > 96.6 µM (inactive); with SNB-75, 26.2 µM (inactive); in the experiment on MDA-MB-435, 26.5 µM (inactive); in the experiment on SK-MEL-28, > 100 µM (inactive); in the experiment on KM12 it was 61.5 µM (inactive); in the experiment with A549 it was > 85.7 µM (inactive). Also, the GI50 was > 100 µM (inactive) with OVCAR-8; 68.4 µM (inactive) in the experiment with BT-549; > 93.3 µM (inactive) in the experiment with OVCAR-5; 11.6 µM (inactive) in the experiment on RXF 393; > 100 µM (inactive) in the experiment with HCC 2998; 33.7 µM (inactive) in the experiment with SR. Also, the GI50 was 58.9 µM (inactive) in the experiment with HL-60; 49.5 µM (inactive) in the experiment on CCRF-CEM; > 100 µM (inactive) in the experiment with UACC-257; 12.4 µM (inactive) in the experiment with T47D; 1.09 µM (active) with ACHN; 17.5 µM (inactive) with HOP-92. Also, the GI50 with SNB-19 was > 100 µM (inactive).

Regarding `COc1ccc2c(c1)N=C1CSC(c3ccccc3Cl)N1C2` (stereo not given), the GI50 in the experiment on 786-0 was 11.5 µM (inactive); in the experiment on SNB-75, 9.91 µM (inactive); in the experiment on MDA-MB-435 it was 11.5 µM (inactive); in the experiment on SK-MEL-28, 17.6 µM (inactive); in the experiment with KM12 it was 4.6 µM (inactive); in the experiment on A549, 10.4 µM (inactive). The GI50 was 16.1 µM (inactive) in the experiment on OVCAR-8; 43.2 µM (inactive) in the experiment on BT-549; 8.97 µM (inactive) in the experiment on OVCAR-5; 11.3 µM (inactive) in the experiment with RXF 393; 5.07 µM (inactive) in the experiment with HCC 2998; 5.48 µM (inactive) with SF-539. Also, the GI50 in the experiment with SR was 0.929 µM (active); with HL-60, 0.411 µM (active); with UACC-257 it was 16.3 µM (inactive); with T47D it was 19.5 µM (inactive); in the experiment on ACHN, 11.8 µM (inactive); with HOP-92, 18.3 µM (inactive). Moreover, the GI50 in the experiment with SNB-19 is 19 µM (inactive).

With `COc1ccc(OC)c(CC(=O)c2ccc(O)c(C(=O)NCCc3ccc(F)cc3)c2)c1`, the GI50 with 786-0 is 4.18 µM (inactive); with SNB-75, 2.55 µM (inactive); in the experiment with MDA-MB-435, 0.615 µM (active); with SK-MEL-28, 6.41 µM (inactive); with KM12 it was 3.42 µM (inactive); in the experiment with A549, 4.49 µM (inactive). The GI50 is 4.23 µM (inactive) in the experiment with OVCAR-8; 12 µM (inactive) in the experiment with BT-549; 7.36 µM (inactive) with OVCAR-5; 1.09 µM (active) in the experiment on RXF 393; 4.63 µM (inactive) in the experiment with HCC 2998; 0.502 µM (active) in the experiment on SR. The GI50 in the experiment on HL-60 was 2.16 µM (inactive); in the experiment on UACC-257, 10.5 µM (inactive); in the experiment on T47D it was 2.8 µM (inactive); in the experiment on ACHN it was 10.5 µM (inactive); in the experiment on HOP-92, 10.8 µM (inactive); in the experiment with SNB-19 it was 3.79 µM (inactive).

These data come from ChEMBL document CHEMBL1201862, “PubChem BioAssay data set” (2004).
